Assay results as given in patent US7846902B2, “Dipeptide-comprising composition for oral administration” (Kyowa Hakko Bio Co., Ltd., priority 2005, dated 2010).
Peptide text beside a SMILES is read from it.

Conditions: 37° C., 2 hours
Protocol: 10 μL of the resultant dipeptide solution was mixed with 4 μL of blood plasma or 4 μL of water, and was incubated at 37° C. for 2 hours. The mixture solution after incubation was applied to a TLC plate (manufactured by Merck Ltd.), and developed with a solution containing butanol (Kishida Chemical Co., Ltd.), acetic acid (Kishida Chemical Co., Ltd.) and water in a ratio of 2:1:1. A 1% ninhydrin solution was sprayed onto the mixture, which was then incubated at 80° C. for 5 minutes. Incidentally, the 1% ninhydrin solution was prepared by dissolving ninhydrin (Wako Pure Chemical Industries, Ltd.) in ethanol (Kishida Chemical Co., Ltd.).

SMILES	TLC spots when mixed with water
CC[C@H](C)[C@H](NC(=O)[C@H](C)N)C(=O)O [Alanyl-Isoleucine, alanyl-isoleucine] (H-Ala-Ile-OH)	single spot alone
CC(C)C[C@H](NC(=O)[C@H](C)N)C(=O)O [Alanyl-Leucine, alanyl-leucine] (H-Ala-Leu-OH)	single spot alone
CC(C)[C@H](NC(=O)[C@H](C)N)C(=O)O [Alanyl-Valine, alanyl-valine] (H-Ala-Val-OH)	single spot alone
